What was measured:
[1] = biological target: Voltage-gated inwardly rectifying potassium channel KCNH2 (Homo sapiens, UniProt Q12809); type: functional; details: read-out: AC50
[2] = biological target: T1, Amine oxidase [flavin-containing] A (Homo sapiens, UniProt P21397); type: functional
T1 sequence (P21397 whole entry): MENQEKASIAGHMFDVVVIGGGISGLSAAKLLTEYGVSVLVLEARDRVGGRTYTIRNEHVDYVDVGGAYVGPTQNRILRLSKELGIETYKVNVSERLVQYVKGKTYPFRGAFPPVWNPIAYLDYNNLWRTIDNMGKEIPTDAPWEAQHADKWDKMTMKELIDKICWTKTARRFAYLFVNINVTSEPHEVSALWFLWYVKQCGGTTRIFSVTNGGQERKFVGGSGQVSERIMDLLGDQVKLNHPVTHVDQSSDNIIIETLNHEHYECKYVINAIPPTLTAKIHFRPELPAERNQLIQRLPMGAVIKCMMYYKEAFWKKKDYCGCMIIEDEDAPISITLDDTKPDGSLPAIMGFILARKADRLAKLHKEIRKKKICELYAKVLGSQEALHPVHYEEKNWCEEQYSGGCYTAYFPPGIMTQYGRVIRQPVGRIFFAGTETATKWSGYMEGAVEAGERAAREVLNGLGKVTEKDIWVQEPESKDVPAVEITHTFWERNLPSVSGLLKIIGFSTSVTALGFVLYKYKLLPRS

[3] = biological target: T2, Type-1 angiotensin II receptor (Homo sapiens, UniProt P30556)
T2 sequence (P30556 whole entry): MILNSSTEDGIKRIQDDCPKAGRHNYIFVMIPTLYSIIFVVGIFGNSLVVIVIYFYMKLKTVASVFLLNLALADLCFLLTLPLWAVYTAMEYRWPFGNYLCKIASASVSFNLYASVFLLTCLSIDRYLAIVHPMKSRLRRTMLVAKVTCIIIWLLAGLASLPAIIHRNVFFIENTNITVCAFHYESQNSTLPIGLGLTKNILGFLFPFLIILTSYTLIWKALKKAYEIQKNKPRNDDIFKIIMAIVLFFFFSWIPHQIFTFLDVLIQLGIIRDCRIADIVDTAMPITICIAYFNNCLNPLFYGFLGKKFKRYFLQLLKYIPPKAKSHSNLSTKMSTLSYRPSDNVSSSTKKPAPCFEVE

[4] = biological target: T3, 5-hydroxytryptamine receptor 3A (Homo sapiens, UniProt P46098); type: functional
T3 sequence (P46098 whole entry): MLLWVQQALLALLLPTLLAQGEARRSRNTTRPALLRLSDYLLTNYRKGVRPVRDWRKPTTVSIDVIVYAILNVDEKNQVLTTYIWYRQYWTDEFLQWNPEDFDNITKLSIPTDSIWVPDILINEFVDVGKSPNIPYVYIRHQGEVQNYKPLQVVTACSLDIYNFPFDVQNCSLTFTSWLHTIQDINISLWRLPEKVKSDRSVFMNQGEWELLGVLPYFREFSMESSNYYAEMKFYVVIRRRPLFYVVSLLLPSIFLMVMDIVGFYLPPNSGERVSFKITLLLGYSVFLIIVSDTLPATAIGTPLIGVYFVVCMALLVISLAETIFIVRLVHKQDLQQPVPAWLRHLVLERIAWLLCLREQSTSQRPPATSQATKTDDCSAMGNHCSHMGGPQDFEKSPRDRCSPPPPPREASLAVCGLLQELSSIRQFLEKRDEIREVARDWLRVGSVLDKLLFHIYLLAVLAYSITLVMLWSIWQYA

[5] = biological target: T4, Muscarinic acetylcholine receptor M2 (Homo sapiens, UniProt P08172); type: functional, cell-based
T4 sequence (P08172 whole entry): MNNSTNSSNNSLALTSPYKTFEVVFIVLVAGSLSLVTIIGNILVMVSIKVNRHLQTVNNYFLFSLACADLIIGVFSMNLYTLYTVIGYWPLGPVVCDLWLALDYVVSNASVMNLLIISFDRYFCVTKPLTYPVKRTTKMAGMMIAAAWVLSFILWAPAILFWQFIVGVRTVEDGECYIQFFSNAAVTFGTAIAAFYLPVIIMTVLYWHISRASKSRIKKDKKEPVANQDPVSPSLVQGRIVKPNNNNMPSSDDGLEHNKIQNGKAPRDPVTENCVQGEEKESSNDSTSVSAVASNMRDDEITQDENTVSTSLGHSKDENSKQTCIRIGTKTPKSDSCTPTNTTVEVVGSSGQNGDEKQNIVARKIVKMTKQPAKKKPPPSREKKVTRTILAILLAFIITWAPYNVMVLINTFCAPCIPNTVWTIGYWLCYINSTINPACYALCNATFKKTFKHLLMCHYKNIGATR

Melanocortin receptor 3 = Melanocortin receptor 3 (Homo sapiens, UniProt P41968)
Melanocortin receptor 3, sequence (P41968 whole entry): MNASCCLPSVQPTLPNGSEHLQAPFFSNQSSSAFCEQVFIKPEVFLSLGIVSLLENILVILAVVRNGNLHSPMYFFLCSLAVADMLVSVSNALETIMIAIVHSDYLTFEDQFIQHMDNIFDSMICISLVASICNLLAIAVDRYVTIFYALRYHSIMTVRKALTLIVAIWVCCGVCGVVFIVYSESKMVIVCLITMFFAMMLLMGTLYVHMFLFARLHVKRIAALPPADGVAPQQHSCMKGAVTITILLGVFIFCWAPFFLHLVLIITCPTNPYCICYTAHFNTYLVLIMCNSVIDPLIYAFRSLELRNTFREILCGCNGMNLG

[6] = biological target: Neuronal acetylcholine receptor subunit alpha-4 (Homo sapiens, UniProt P43681)
Neuronal acetylcholine receptor subunit alpha-4, sequence (P43681 whole entry): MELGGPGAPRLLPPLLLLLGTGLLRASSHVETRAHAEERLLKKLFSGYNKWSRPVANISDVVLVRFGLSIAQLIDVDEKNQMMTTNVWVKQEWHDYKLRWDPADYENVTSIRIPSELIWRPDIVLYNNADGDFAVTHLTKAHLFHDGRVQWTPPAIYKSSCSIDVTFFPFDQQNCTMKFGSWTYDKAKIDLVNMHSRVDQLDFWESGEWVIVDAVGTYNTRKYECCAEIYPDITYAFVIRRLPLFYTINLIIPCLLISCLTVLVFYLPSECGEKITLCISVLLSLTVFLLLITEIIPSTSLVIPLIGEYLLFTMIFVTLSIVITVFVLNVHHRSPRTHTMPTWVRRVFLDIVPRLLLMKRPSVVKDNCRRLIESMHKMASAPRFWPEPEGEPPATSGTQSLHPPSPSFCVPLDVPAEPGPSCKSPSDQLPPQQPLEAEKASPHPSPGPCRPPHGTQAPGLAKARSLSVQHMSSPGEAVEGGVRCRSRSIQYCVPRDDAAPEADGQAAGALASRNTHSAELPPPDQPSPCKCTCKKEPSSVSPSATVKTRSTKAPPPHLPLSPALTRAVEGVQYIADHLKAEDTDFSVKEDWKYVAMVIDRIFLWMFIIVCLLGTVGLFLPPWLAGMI

[7] = biological target: T4, Muscarinic acetylcholine receptor M2; type: functional, cell-based; remark: listed apart in the source
Vasopressin V1a receptor = Vasopressin V1a receptor (Homo sapiens, UniProt P37288)
Vasopressin V1a receptor, sequence (P37288 whole entry): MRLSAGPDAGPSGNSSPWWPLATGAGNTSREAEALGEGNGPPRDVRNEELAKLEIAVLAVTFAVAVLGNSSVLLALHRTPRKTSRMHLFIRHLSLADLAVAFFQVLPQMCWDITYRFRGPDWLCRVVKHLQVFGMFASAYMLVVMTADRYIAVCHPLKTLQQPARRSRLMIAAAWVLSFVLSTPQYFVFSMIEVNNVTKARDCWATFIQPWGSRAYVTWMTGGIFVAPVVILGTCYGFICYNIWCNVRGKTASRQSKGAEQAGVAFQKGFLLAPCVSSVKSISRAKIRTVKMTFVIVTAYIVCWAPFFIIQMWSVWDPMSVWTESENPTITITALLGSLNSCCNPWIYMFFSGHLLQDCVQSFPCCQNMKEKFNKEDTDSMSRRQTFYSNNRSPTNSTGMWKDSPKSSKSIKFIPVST

[8] = biological target: Kappa-type opioid receptor (Homo sapiens, UniProt P41145)
Kappa-type opioid receptor, sequence (P41145 whole entry): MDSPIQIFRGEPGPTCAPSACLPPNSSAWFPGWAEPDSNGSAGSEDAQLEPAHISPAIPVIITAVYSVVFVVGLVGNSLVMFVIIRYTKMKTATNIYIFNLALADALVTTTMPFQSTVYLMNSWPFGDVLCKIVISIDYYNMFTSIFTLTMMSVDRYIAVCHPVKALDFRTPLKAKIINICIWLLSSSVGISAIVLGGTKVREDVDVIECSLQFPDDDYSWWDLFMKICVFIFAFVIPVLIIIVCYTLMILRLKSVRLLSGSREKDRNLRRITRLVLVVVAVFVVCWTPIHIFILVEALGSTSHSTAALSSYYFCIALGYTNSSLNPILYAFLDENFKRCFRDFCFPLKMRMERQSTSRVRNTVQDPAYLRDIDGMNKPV
Also: assay procedure not described here.

Voltage-gated inwardly rectifying potassium channel KCNH2, sequence (Q12809 whole entry): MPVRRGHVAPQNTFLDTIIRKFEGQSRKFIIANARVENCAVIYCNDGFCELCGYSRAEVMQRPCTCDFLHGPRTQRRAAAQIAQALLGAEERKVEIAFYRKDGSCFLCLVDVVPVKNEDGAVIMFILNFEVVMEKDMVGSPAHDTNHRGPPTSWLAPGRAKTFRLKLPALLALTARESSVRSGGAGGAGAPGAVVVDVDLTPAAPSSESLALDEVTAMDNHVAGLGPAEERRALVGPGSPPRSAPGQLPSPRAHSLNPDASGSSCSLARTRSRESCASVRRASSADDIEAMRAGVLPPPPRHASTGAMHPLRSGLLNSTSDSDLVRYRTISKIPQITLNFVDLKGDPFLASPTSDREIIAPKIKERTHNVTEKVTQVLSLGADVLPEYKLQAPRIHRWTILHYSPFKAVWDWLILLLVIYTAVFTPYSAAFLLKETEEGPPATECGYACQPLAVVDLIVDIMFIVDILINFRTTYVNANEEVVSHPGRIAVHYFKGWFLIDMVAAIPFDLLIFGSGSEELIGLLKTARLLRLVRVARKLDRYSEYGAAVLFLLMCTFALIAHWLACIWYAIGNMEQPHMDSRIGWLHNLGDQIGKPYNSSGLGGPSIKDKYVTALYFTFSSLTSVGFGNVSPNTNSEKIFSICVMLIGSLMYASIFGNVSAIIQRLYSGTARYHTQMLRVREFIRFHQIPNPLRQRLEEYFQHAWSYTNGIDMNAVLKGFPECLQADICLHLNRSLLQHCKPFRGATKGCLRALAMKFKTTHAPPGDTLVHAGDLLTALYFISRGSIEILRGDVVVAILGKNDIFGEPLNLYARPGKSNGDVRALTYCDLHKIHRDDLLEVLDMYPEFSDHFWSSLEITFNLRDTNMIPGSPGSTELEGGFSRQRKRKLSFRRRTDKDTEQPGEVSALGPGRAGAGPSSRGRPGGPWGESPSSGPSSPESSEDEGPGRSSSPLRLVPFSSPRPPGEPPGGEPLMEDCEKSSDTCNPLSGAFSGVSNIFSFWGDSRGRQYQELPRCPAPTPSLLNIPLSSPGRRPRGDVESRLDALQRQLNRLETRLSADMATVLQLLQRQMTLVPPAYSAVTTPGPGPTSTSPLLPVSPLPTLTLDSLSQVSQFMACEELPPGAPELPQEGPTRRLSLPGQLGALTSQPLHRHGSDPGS

Q: For `CCCCCCOc1nsnc1C1=CCCN(C)C1` [XANOMELINE], which AC50 [1] is on record?
A: 1.3 µM

Q: For `O=C(O)c1cc(O)ccc1O` [GENTISIC ACID], which AC50 [1] is on record?
A: > 30 µM

Q: With `CC(C)Nc1ncccn1` [ISAXONINE] as the molecule, how does the AC50 [1] read?
A: > 30 µM

Q: `CC(C)(S)[C@@H](N)C(=O)O` [PENICILLAMINE] was tested. Which AC50 [1] did it give?
A: > 30 µM

Q: How did the AC50 [2] turn out when `CC(=O)Nc1ccc(O)cc1` [ACETAMINOPHEN] was run?
A: > 30 µM

Q: And the AC50 [3]?
A: > 30 µM

Q: And the AC50 [4]?
A: > 30 µM

Q: What about the AC50 [5] of the same molecule?
A: > 30 µM

Q: What about the AC50 (Melanocortin receptor 3) of the same molecule?
A: > 30 µM

Q: And the AC50 [6]?
A: > 30 µM

Q: What about the AC50 [1] of the same molecule?
A: > 30 µM

Q: And the AC50 [7]?
A: > 30 µM

Q: And the AC50 (Vasopressin V1a receptor)?
A: > 30 µM

Q: What does the source list for `COCCCN1CCC(NC(=O)c2cc(Cl)c(N)c3c2OCC3)CC1` [PRUCALOPRIDE]?
A: AC50 [2]: > 30 µM; AC50 [3]: > 30 µM; AC50 [4]: 28 µM; AC50 [5]: > 30 µM; AC50 (Melanocortin receptor 3): > 30 µM; AC50 [6]: > 30 µM; AC50 [1]: > 30 µM; AC50 [7]: > 30 µM; AC50 (Vasopressin V1a receptor): > 30 µM

Q: How did the AC50 [2] turn out when `COc1cc2nc(N(C)CCCNC(=O)C3CCCO3)nc(N)c2cc1OC` (configuration not stated) [ALFUZOSIN] was run?
A: > 30 µM

Q: And the AC50 [3]?
A: > 30 µM

Q: And the AC50 [4]?
A: > 30 µM

Q: What about the AC50 [5] of the same molecule?
A: > 30 µM

Q: And the AC50 (Melanocortin receptor 3)?
A: > 30 µM

Q: And the AC50 [6]?
A: > 30 µM

Q: What about the AC50 [8] of the same molecule?
A: > 30 µM

Q: And the AC50 [7]?
A: > 30 µM

Q: What about the AC50 (Vasopressin V1a receptor) of the same molecule?
A: > 30 µM

Q: For `CN(C)CCN1C(=O)c2ccccc2N(C)c2ccccc21` [DIBENZEPIN], which AC50 [1] is on record?
A: > 30 µM

Q: Which AC50 [1] does the source give for `CCOC(=O)[C@H](CCc1ccccc1)N[C@@H](C)C(=O)N1[C@H](C(=O)O)C[C@H]2CCCC[C@@H]21` [TRANDOLAPRIL] here?
A: > 30 µM

Q: What does the source list for `N[C@@H]1[C@H]2CN(c3nc4c(cc3F)c(=O)c(C(=O)O)cn4-c3ccc(F)cc3F)C[C@@H]12` [TROVAFLOXACIN]?
A: AC50 [2]: > 30 µM; AC50 [3]: > 30 µM; AC50 [4]: > 30 µM; AC50 [5]: > 30 µM; AC50 (Melanocortin receptor 3): > 30 µM; AC50 [6]: > 30 µM; AC50 [1]: > 30 µM; AC50 [7]: > 30 µM; AC50 (Vasopressin V1a receptor): > 30 µM

Q: `C[C@]12CC[C@@H]3c4ccc(O)cc4CC[C@H]3[C@@H]1C[C@@H](O)[C@@H]2O` [ESTRIOL] was tested. Which AC50 [1] did it give?
A: > 30 µM

Q: How did the AC50 [2] turn out when `c1cnc(N2CCN(Cc3ccc4c(c3)OCO4)CC2)nc1` [PIRIBEDIL] was run?
A: > 30 µM

Q: What about the AC50 [3] of the same molecule?
A: > 30 µM

Q: What about the AC50 [4] of the same molecule?
A: > 30 µM

Q: And the AC50 [5]?
A: > 30 µM

Q: And the AC50 (Melanocortin receptor 3)?
A: > 30 µM

Q: And the AC50 [6]?
A: > 30 µM

Q: And the AC50 [1]?
A: 19 µM

Q: And the AC50 [7]?
A: > 30 µM

Q: What about the AC50 (Vasopressin V1a receptor) of the same molecule?
A: > 30 µM

Q: Which AC50 [1] does the source give for `COC(c1ccccc1)(c1ccccc1)[C@H](Oc1nc(C)cc(C)n1)C(=O)O` [AMBRISENTAN] here?
A: > 30 µM

Q: What does the source list for `CN(C)CCC=C1c2ccccc2C(C)(C)c2ccccc21`?
A: AC50 [2]: > 30 µM; AC50 [3]: > 30 µM; AC50 [4]: 4.4 µM; AC50 [5]: > 10 µM; AC50 (Melanocortin receptor 3): 21 µM; AC50 [6]: > 1 µM; AC50 [1]: 4.13 µM; AC50 [7]: 0.25 µM; AC50 (Vasopressin V1a receptor): > 30 µM

Q: `O=C(OCC(O)CO)c1ccccc1Nc1ccnc2cc(Cl)ccc12` (configuration not stated) [GLAFENINE] was tested. Which AC50 [2] did it give?
A: > 30 µM

Q: What about the AC50 [3] of the same molecule?
A: > 30 µM

Q: What about the AC50 [4] of the same molecule?
A: > 30 µM

Q: And the AC50 [5]?
A: > 10 µM

Q: And the AC50 (Melanocortin receptor 3)?
A: > 30 µM

Q: And the AC50 [6]?
A: > 30 µM

Q: And the AC50 [1]?
A: 1.4 µM

Q: What about the AC50 [7] of the same molecule?
A: > 10 µM

Q: What about the AC50 (Vasopressin V1a receptor) of the same molecule?
A: > 30 µM

Q: Which AC50 [1] does the source give for `CN(C)CC(c1ccc(O)cc1)C1(O)CCCCC1` (configuration not stated) [DESVENLAFAXINE] here?
A: > 30 µM

Q: How did the AC50 [2] turn out when `C[C@H]1CNCCc2ccc(Cl)cc21` [LORCASERIN] was run?
A: > 30 µM

Q: And the AC50 [3]?
A: > 30 µM

Q: What about the AC50 [4] of the same molecule?
A: > 30 µM

Q: And the AC50 [5]?
A: > 30 µM

Q: And the AC50 (Melanocortin receptor 3)?
A: > 30 µM

Q: What about the AC50 [6] of the same molecule?
A: > 30 µM

Q: And the AC50 [1]?
A: 6.5 µM

Q: And the AC50 [7]?
A: > 30 µM

Q: And the AC50 (Vasopressin V1a receptor)?
A: > 30 µM

Q: Which AC50 [1] does the source give for `CC(C)(C)NC[C@H](O)COc1ccccc1C1CCCC1` [PENBUTOLOL] here?
A: 11 µM

— ChEMBL document CHEMBL5291721, “A preclinical secondary pharmacology resource illuminates target-adverse drug reaction associations of marketed drugs” (Nat Commun, 2023)
